This is an account of results in US20240150363A1, “COELENTERAZINE ANALOGUES” (Promega Corporation, priority 2022, published 2024).

Data set [1] is described as follows: Stability of formulated Compound 6 (P-407 cake) in reconstitution buffers, LC-MS. It counts as physicochemical. As for the experimental part: Experiments were conducted during development of embodiments herein to evaluate the stability of Compound 6 in various reconstitution buffer formulation. Briefly, 12 mg of Poloxamer 407 (P-407) was melted at 70˜75° C., and 4.2 μmol of Compound 6 was dissolved in 1 mL EtOH, followed by transferring the resulting solution to the melted P-407. The resulting mixture was rotated at 65˜75° C. to afford a homogeneous solution. The resulting solution was concentrated in vacuo and resuspended in 6 ml MQ water. 1 mL aliquots of the resuspended Compound 6 was then distributed into sample vials, frozen, and lyophilized to afford a formulated cake. Sample formulated cakes were then reconstituted in DPBS, HEPES, or Tris (pH 6.5, 7.5, or 8.0) buffers. Stability and purity were determined by LC-MS.

A short description of data set [2]: Systematic stability study of formulated Compound 6 reconstitution in buffers, LC-MS. It counts as physicochemical. The method, then:
In addition to the stability experiments in Example 3, an additional systematic, controlled, and comprehensive stability study was conducted to evaluate the stability of formulated Compound 6 in various buffer formulation. Briefly, 4.2 μmol of Compound 6 was reconstituted in 1 mL of each buffer at the concentration and pH outlined in Table 1. Concentration and purity were determined by LC-MS. Briefly, 1 μL of sample was injected into an Eclipse RRHD C8 (50×2; 1 mm; 1.8 micron; λ=254 nm) with an aqueous mobile phase of 0.1% TFA in Nanopure water and an organic mobile phase of acetonitrile.

The target in data set [3] is T1, NLuc-HaloTag fusion (Oplophorus gracilirostris, UniProt Q9GV45, A31E/A60N/A81I/F95D/I117V/K70R/L54V/L99Q/M102K/N193R/P142E/Q151K/Q38R/Q45L/V71I/Y165I).
T1 construct: HaloTag (fusion partner)
T1 sequence (Q9GV45 other isoform, or with tags, fused parts or gaps with the stated changes): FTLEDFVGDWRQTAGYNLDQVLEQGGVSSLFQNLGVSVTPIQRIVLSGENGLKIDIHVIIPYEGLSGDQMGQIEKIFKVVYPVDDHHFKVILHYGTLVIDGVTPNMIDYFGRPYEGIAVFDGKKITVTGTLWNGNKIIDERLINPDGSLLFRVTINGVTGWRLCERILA
Nature of the data set: Total bioluminescence of purified NLuc-HaloTag fusion with substrate. The class given is biochemical. Particulars: purified NLuc-HaloTag fusion 6 nM, substrate 20 μM, 1 min; compared to Furimazine and FluoroFurimazine. The method, then: (§1) Experiments were conducted during development of embodiments herein to evaluate the influence of Furimazine analogs on the intensity of bioluminescence produced by either purified NLuc-HaloTag fusion or purified chimera (i.e., HT178-cpNLuc-179, generated by insertion of cpNLuc into HaloTag). Briefly, purified NLuc-HaloTag fusion or chimera was diluted in TBS+0.1% BSA to a final concentration of 6 nM, treated with substrate at a final concentration of 20 μM, and incubated for 1 min before measurements of total bioluminescence on a GloMax® Discover plate reader (Promega; n=3) or measurements of bioluminescence intensity across 400-600 nm on an Infinite M1000 plate reader (Tecan; n=1).

Data set [4] has as its system chimera (HT178-cpNLuc-179). Nature of the data set: Total bioluminescence of purified chimera with substrate. The class given is biochemical. Particulars: purified chimera 6 nM, substrate 20 μM, 1 min; compared to Furimazine and FluoroFurimazine. The method, then:
as §1

The target of data set [5] is T1, NLuc-HaloTag fusion. Nature of the data set: Bioluminescence of HeLa cells transiently expressing NLuc-HaloTag fusion. The class given is cell-based. To be noted: substrate 10 μM, 1 min, compared to Furimazine and FluoroFurimazine. The method, then:
(§2) Additional experiments were conducted during development of embodiments herein to evaluate the influence of Furimazine analogs on the intensity of bioluminescence produced by transiently expressed NLuc-HaloTag fusion or chimera (i.e., HT178-cpNLuc-179, generated by insertion of cpNLuc into HaloTag). Briefly, HeLa cells diluted to 2.2×10^5 cells/mL in OptiMEM+2% serum were transfected with DNA encoding either NLuc-HaloTag fusion or chimera, plated in 96-well at 90 μL/well, and incubated overnight at 37° C.+5% CO2. Next day, cells were treated with substrate at a final concentration of 10 μM and incubated for 1 min before measurements of total bioluminescence on a GloMax® Discover plate reader (Promega; n=3) or measurements of bioluminescence intensity across 400-600 nm on an Infinite M1000 plate reader (Tecan; n=1).

For data set [6], the system named is chimera (HT178-cpNLuc-179). Nature of the data set: Bioluminescence of HeLa cells transiently expressing chimera. To be noted: substrate 10 μM, 1 min, compared to Furimazine and FluoroFurimazine. It counts as cell-based. The method, then:
as §2

Setting [7] is: reconstituted using glycerol (2%).

`O=c1c(Cc2ccco2)nc2c(Cc3ccccc3F)[nH]c(-c3cccc(F)c3F)cn1-2` [Compound 6, 6-(2,3-difluorophenyl)-8-(2-fluorobenzyl)-2-(furan-2-ylmethyl)imidazo[1,2-a]pyrazin-3(7H)-one]: the stability and purity entry in data set [1] (reconstituted in DPBS) is “lowest stability and purity”. Moreover, the “purity after 3 h” value in data set [1] (reconstituted in HEPES) was “about 50%”; in data set [1] (reconstituted in Tris buffer), roughly 90%. Also, the stability entry is listed as “improved stability compared to DPBS” in data set [1] (reconstituted in HEPES) and “highest stability” in data set [1] (reconstituted in Tris buffer). Further, the “preservation based on purity and concentration data” value in data set [2] (in Tris (pH=8) buffer), in data set [2] (in saline) and in data set [2] (in water) was “well-preserved” each time. In addition, the precipitation / solubility entry in data set [2] (reconstituted using DPBS (pH 7.0)), in data set [2] (reconstituted using Tris (pH=6.5)), in data set [2] (reconstituted using bicarbonate (pH 9.5)) and in data set [2] (setting [7]) was “visible precipitation” throughout. In addition, the “purity over a 6-hour period” value in data set [2] (reconstituted using Tris (pH=8)), in data set [2] (reconstituted using acetate (sodium acetate pH 5.2)), in data set [2] (reconstituted using citrate (pH 6.0)), in data set [2] (setting [7]), in data set [2] (reconstituted using saline (0.9%)) and in data set [2] (reconstituted using water) was “greater than 90%” each time.

On to `Cc1ccc(Cc2nc3c(Cc4ccccc4F)[nH]c(-c4cccc(F)c4F)cn-3c2=O)o1` [Compound 10, 6-(2,3-difluorophenyl)-8-(2-fluorobenzyl)-2-((5-methylfuran-2-yl)methyl)imidazo[1,2-a]pyrazin-3(7H)-one], for which the “bioluminescence signal as a substrate” value in data set [3], in data set [4], in data set [5] and in data set [6] was “significantly brighter signal” in each case.
